Assay results as given in the NIST ThermoML archive (doi:10.1016/j.jct.2005.12.005).
Numbers after ± are expanded uncertainties.

Key:
[1] = xn = mol fraction of the nth substance listed; details: 101 kPa, Liquid; for speed of sound: Sing-around technique in a fixed-path interferometer
[2] = refractive index (Na D-line) (dimensionless); xn = mol fraction of the nth substance listed; details: 101 kPa, Liquid

Cc1ccccc1 [toluene] + CC1CCCCC1
x2 = 0
Details | mass density, 298.15 K [kg/m3] | mass density, 303.15 K [kg/m3] | mass density, 308.15 K [kg/m3] | refractive index, 298.15 K | refractive index, 303.15 K | refractive index, 308.15 K | speed of sound, 298.15 K [m/s] | viscosity, 298.15 K [mPa·s] | viscosity, 303.15 K [mPa·s] | viscosity, 308.15 K [mPa·s]
[1] | 862.3 ± 0.5 | 857.6 ± 0.6 | 852.9 ± 0.6 | – | – | – | 1314 ± 5 | 0.559 ± 0.008 | 0.526 ± 0.007 | 0.497 ± 0.007
[2] | – | – | – | 1.4931 ± 0.0009 | 1.4902 ± 0.0009 | 1.4874 ± 0.0009 | – | – | – | –

CC1CCCCC1 [methylcyclohexane] + Cc1ccccc1
Details | mass density, 298.15 K [kg/m3] | mass density, 303.15 K [kg/m3] | mass density, 308.15 K [kg/m3] | refractive index, 298.15 K | refractive index, 303.15 K | refractive index, 308.15 K | speed of sound, 298.15 K [m/s] | viscosity, 298.15 K [mPa·s] | viscosity, 303.15 K [mPa·s] | viscosity, 308.15 K [mPa·s]
[1], x1 = 0.1027 | 849.5 ± 0.6 | 844.9 ± 0.6 | 840.3 ± 0.6 | – | – | – | 1304 ± 5 | 0.551 ± 0.008 | 0.52 ± 0.007 | 0.49 ± 0.007
[1], x1 = 0.205 | 837.5 ± 0.6 | 832.9 ± 0.6 | 828.3 ± 0.6 | – | – | – | 1295 ± 5 | 0.547 ± 0.008 | 0.518 ± 0.007 | 0.489 ± 0.007
[1], x1 = 0.3034 | 826.6 ± 0.7 | 822 ± 0.7 | 817.5 ± 0.7 | – | – | – | 1285 ± 5 | 0.548 ± 0.008 | 0.517 ± 0.007 | 0.487 ± 0.007
[1], x1 = 0.4043 | 816 ± 0.7 | 811.5 ± 0.7 | 807 ± 0.7 | – | – | – | 1275 ± 5 | 0.556 ± 0.008 | 0.523 ± 0.007 | 0.491 ± 0.007
[1], x1 = 0.5031 | 806.3 ± 0.7 | 801.8 ± 0.7 | 797.3 ± 0.7 | – | – | – | 1266 ± 5 | 0.564 ± 0.008 | 0.532 ± 0.008 | 0.5 ± 0.007
[1], x1 = 0.5988 | 797.3 ± 0.7 | 792.8 ± 0.8 | 788.4 ± 0.8 | – | – | – | 1256 ± 5 | 0.577 ± 0.008 | 0.544 ± 0.008 | 0.51 ± 0.007
[1], x1 = 0.7061 | 787.8 ± 0.8 | 783.4 ± 0.8 | 779 ± 0.8 | – | – | – | 1246 ± 5 | 0.592 ± 0.008 | 0.558 ± 0.008 | 0.524 ± 0.008
[1], x1 = 0.8005 | 780 ± 0.8 | 775.6 ± 0.8 | 771.2 ± 0.8 | – | – | – | 1237 ± 5 | 0.614 ± 0.009 | 0.577 ± 0.008 | 0.54 ± 0.008
[1], x1 = 0.8984 | 772.4 ± 0.8 | 768 ± 0.8 | 763.7 ± 0.8 | – | – | – | 1227 ± 5 | 0.643 ± 0.009 | 0.603 ± 0.009 | 0.563 ± 0.008
[1], x1 = 1 | 765 ± 0.9 | 760.7 ± 0.9 | 756.3 ± 0.9 | – | – | – | 1217 ± 5 | 0.676 ± 0.009 | 0.631 ± 0.009 | 0.59 ± 0.008
[2], x1 = 0.1027 | – | – | – | 1.4838 ± 0.0009 | 1.4811 ± 0.0009 | 1.4783 ± 0.0009 | – | – | – | –
[2], x1 = 0.205 | – | – | – | 1.475 ± 0.0009 | 1.4723 ± 0.0009 | 1.4696 ± 0.0009 | – | – | – | –
[2], x1 = 0.3034 | – | – | – | 1.4666 ± 0.0009 | 1.4641 ± 0.0009 | 1.4615 ± 0.0009 | – | – | – | –
[2], x1 = 0.4043 | – | – | – | 1.4586 ± 0.0009 | 1.4561 ± 0.0009 | 1.4537 ± 0.0009 | – | – | – | –
[2], x1 = 0.5031 | – | – | – | 1.4511 ± 0.0009 | 1.4486 ± 0.0009 | 1.4461 ± 0.0009 | – | – | – | –
[2], x1 = 0.5988 | – | – | – | 1.4443 ± 0.0009 | 1.4418 ± 0.0009 | 1.4392 ± 0.0009 | – | – | – | –
[2], x1 = 0.7061 | – | – | – | 1.4373 ± 0.0009 | 1.4347 ± 0.0009 | 1.4321 ± 0.0009 | – | – | – | –
[2], x1 = 0.8005 | – | – | – | 1.4315 ± 0.0009 | 1.4289 ± 0.0009 | 1.4263 ± 0.0009 | – | – | – | –
[2], x1 = 0.8984 | – | – | – | 1.4261 ± 0.001 | 1.4234 ± 0.001 | 1.4208 ± 0.001 | – | – | – | –
[2], x1 = 1 | – | – | – | 1.4217 ± 0.001 | 1.4192 ± 0.001 | 1.4163 ± 0.001 | – | – | – | –

Cc1cc(C)cc(C)c1 [1,3,5-trimethylbenzene] + CC1CCCCC1
Details | mass density, 298.15 K [kg/m3] | mass density, 303.15 K [kg/m3] | mass density, 308.15 K [kg/m3] | refractive index, 298.15 K | refractive index, 303.15 K | refractive index, 308.15 K | speed of sound, 298.15 K [m/s] | viscosity, 298.15 K [mPa·s] | viscosity, 303.15 K [mPa·s] | viscosity, 308.15 K [mPa·s]
[1], x2 = 0 | 861.2 ± 1.1 | 857.1 ± 1.1 | 853 ± 1.1 | – | – | – | 1346 ± 6 | 0.667 ± 0.011 | 0.622 ± 0.01 | 0.586 ± 0.01
[1], x2 = 0.1007 | 851.6 ± 1.1 | 847.5 ± 1.1 | 843.3 ± 1.1 | – | – | – | 1328 ± 6 | 0.653 ± 0.011 | 0.612 ± 0.01 | 0.577 ± 0.01
[1], x2 = 0.1993 | 842 ± 1 | 837.9 ± 1 | 833.8 ± 1 | – | – | – | 1312 ± 6 | 0.638 ± 0.01 | 0.6 ± 0.01 | 0.569 ± 0.009
[1], x2 = 0.3035 | 832 ± 1 | 827.9 ± 1 | 823.7 ± 1 | – | – | – | 1295 ± 6 | 0.629 ± 0.01 | 0.592 ± 0.009 | 0.559 ± 0.009
[1], x2 = 0.4063 | 822 ± 0.9 | 817.9 ± 1 | 813.7 ± 1 | – | – | – | 1280 ± 5 | 0.622 ± 0.01 | 0.584 ± 0.009 | 0.553 ± 0.009
[1], x2 = 0.4974 | 813.1 ± 0.9 | 808.9 ± 0.9 | 804.8 ± 0.9 | – | – | – | 1267 ± 5 | 0.62 ± 0.009 | 0.603 ± 0.03 | 0.547 ± 0.009
[1], x2 = 0.6085 | 802.2 ± 0.9 | 798.1 ± 0.9 | 793.9 ± 0.9 | – | – | – | 1253 ± 5 | 0.621 ± 0.009 | 0.582 ± 0.009 | 0.548 ± 0.008
[1], x2 = 0.7027 | 793.1 ± 0.9 | 788.9 ± 0.9 | 784.7 ± 0.9 | – | – | – | 1244 ± 5 | 0.627 ± 0.009 | 0.588 ± 0.009 | 0.553 ± 0.008
[1], x2 = 0.7973 | 784 ± 0.9 | 779.7 ± 0.9 | 775.5 ± 0.9 | – | – | – | 1235 ± 5 | 0.638 ± 0.009 | 0.598 ± 0.009 | 0.566 ± 0.008
[1], x2 = 0.902 | 774.1 ± 0.9 | 769.8 ± 0.9 | 765.6 ± 0.9 | – | – | – | 1225 ± 5 | 0.654 ± 0.009 | 0.622 ± 0.009 | 0.575 ± 0.008
[2], x2 = 0 | – | – | – | 1.496 ± 0.0025 | 1.4936 ± 0.0025 | 1.4913 ± 0.0025 | – | – | – | –
[2], x2 = 0.1007 | – | – | – | 1.489 ± 0.0025 | 1.4865 ± 0.0025 | 1.4843 ± 0.0025 | – | – | – | –
[2], x2 = 0.1993 | – | – | – | 1.4817 ± 0.0025 | 1.4809 ± 0.0025 | 1.4771 ± 0.0025 | – | – | – | –
[2], x2 = 0.3035 | – | – | – | 1.474 ± 0.0025 | 1.473 ± 0.0025 | 1.4692 ± 0.0025 | – | – | – | –
[2], x2 = 0.4063 | – | – | – | 1.4663 ± 0.0025 | 1.4647 ± 0.0025 | 1.4614 ± 0.0025 | – | – | – | –
[2], x2 = 0.4974 | – | – | – | 1.4593 ± 0.0025 | 1.4565 ± 0.0025 | 1.4544 ± 0.0025 | – | – | – | –
[2], x2 = 0.6085 | – | – | – | 1.4508 ± 0.0025 | 1.4529 ± 0.008 | 1.4459 ± 0.0025 | – | – | – | –
[2], x2 = 0.7027 | – | – | – | 1.4436 ± 0.0025 | 1.4421 ± 0.0025 | 1.4386 ± 0.0025 | – | – | – | –
[2], x2 = 0.7973 | – | – | – | 1.4363 ± 0.0025 | 1.4347 ± 0.0025 | 1.4312 ± 0.0025 | – | – | – | –
[2], x2 = 0.902 | – | – | – | 1.4285 ± 0.0025 | 1.4265 ± 0.0025 | 1.4233 ± 0.0025 | – | – | – | –

CC1CCCCC1 [methylcyclohexane] + Cc1cc(C)cc(C)c1
x1 = 1
Details | mass density, 298.15 K [kg/m3] | mass density, 303.15 K [kg/m3] | mass density, 308.15 K [kg/m3] | refractive index, 298.15 K | refractive index, 303.15 K | refractive index, 308.15 K | speed of sound, 298.15 K [m/s] | viscosity, 298.15 K [mPa·s] | viscosity, 303.15 K [mPa·s] | viscosity, 308.15 K [mPa·s]
[1] | 765 ± 0.9 | 760.7 ± 0.9 | 756.3 ± 0.9 | – | – | – | 1217 ± 5 | 0.676 ± 0.009 | 0.631 ± 0.009 | 0.59 ± 0.008
[2] | – | – | – | 1.4217 ± 0.0025 | 1.4192 ± 0.0025 | 1.4163 ± 0.0025 | – | – | – | –
